pIC50: −log10 of the molar value.
How the values were obtained:
[1] = system: voltage-gated sodium ion (NaV) channels in pituitary GH3 cells; assay: Whole-cell INa(T) decay during a 1-s, 20-Hz train of depolarizing pulses in GH3 cells; type: cell-based, rat; conditions: control 65 ± 4 ms, n = 7
Description: Shortly before experiments, GH3 was carefully suspended in normal Tyrode’s solution at room temperature (20–25 °C). A few drops of the suspension containing cell clumps were immediately added to a custom-built chamber on the stage of an inverted Diaphot-200 microscope (Nikon, Tokyo, Japan). Pipettes were pulled from Kimax-51 soft-glass capillaries (#34500-99; Kimble, Vineland, NJ) by using a Narishige PP-830 Vertical Puller (Tokyo, Japan), and their tips were fire-polished using a microforge (MF-83, Narishige). During the measurements, an electrode with a tip resistance of 2–4 MΩ, which was tightly inserted into a holder, was maneuvered using a WR-98 micromanipulator (Narishige). Patch-clamp experiments were performed in the voltage-clamp mode with either cell-attached or whole-cell configuration (rupturing of the membrane patch after GΩ formation) by using a RK-400 Patch-Clamp Amplifier (Bio-Logic, Claix, France) connected to a laptop. Shortly before GΩ formation, potential correction was performed for a liquid junction potential, which developed at the electrode’s tip because of the difference in the compositions of the internal and bath solutions.
SAF is efficacious as an add-on therapy following subthalamic nucleus deep brain stimulation in patients with Parkinson’s disease. Therefore, we investigated whether SAF could modify the inactivation of currents induced by a train of depolarizing stimuli. The test cells were maintained at −80 mV and subjected to repetitive depolarization to −10 mV (40 ms per pulse; rate of 20 Hz; duration of 1 s). Similar to the findings of relevant studies, during the control period (the absence of SAF), INa(T) inactivation was noticed to be induced by 1 s of repetitive depolarization stimuli (−80 to −10 mV) with a decaying time constant of 65 ± 4 ms (n = 7; Fig. 6A, 6B and 6C). […] In the presence of 3 and 10 μM SAF, the exponential time course of INa(T) induced by the same train of depolarizing pulses was longer at 107 ± 5 ms (n = 7, P < 0.05) and 124 ± 6 ms (n = 7, P < 0.05), respectively. Furthermore, as MGB and ranolazine have been reported to suppress the amplitude of INa effectively, we added ranolazine (Ran; 10 μM) and mirogabalin (MGB; 10 μM) separately in the presence of 10 μM SAF. […] The application of Ran (10 μM) or MGB (10 μM) alone decreased the decaying time constant of INa(T) during the same train of depolarizing pulses to 39 ± 4 ms (n = 7, P < 0.05) or 42 ± 4 ms (n = 7, P < 0.05), respectively, from a control value of 66 ± 5 ms (n = 7). Thus, in addition to increasing the magnitude of INa(T), SAF prominently affects the decaying of INa(T) subjected to a 1-s train of depolarizing pulses.
Fig. 6 Effect of SAF on INa(T) decay induced by a train of depolarizing pulses in GH3 cells. The train of pulses comprised twenty 40-ms pulses (voltage increased to −10 mV) with 10-ms intervals at −80 mV for a total duration of 1 s. (A) Current traces during the control period (a, blue) and during exposure to 10 μM SAF (b, red). The voltage-clamp protocol used is indicated atop the current traces. In panel A, the third graphs (blue and red) from the top are the expanded forms of the second graphs (brown dashed boxes). (B) The relative amplitude of INa(T) versus pulse train duration in the absence (blue open circles) and presence (red open squares) of 10 μM SAF (mean ± standard error of the mean; n = 7 for each point). The INa(T) amplitudes were normalized by dividing the current amplitudes at the end of each pulse-train stimulation by those obtained at the beginning of the pulse train stimulation. The gray continuous lines on which the data points are overlaid are reliably fitted with a single exponential.

MAO-B = conditions: read-out: IC50 for inhibition of MAO-B activity; cited from earlier work

C[C@H](NCc1ccc(OCc2cccc(F)c2)cc1)C(N)=O [SAF, (S)-2-((4-((3-fluorobenzyl)oxy)benzyl)amino)propanamide]
decaying time constant of INa(T) during train of depolarizing pulses ([1]; 3 μM SAF): 107 ± 5 ms
decaying time constant of INa(T) during train of depolarizing pulses ([1]; 10 μM SAF): 124 ± 6 ms

Reference: PMC10851555, “Safinamide, an inhibitor of monoamine oxidase, modulates the magnitude, gating, and hysteresis of sodium ion current” (BMC Pharmacology & Toxicology, 2024)
